Reference: article PMC9501832 (Pharmaceutics, 2022)
Like-named read-outs stand apart in the source and are kept apart here.

Experiments:
[1] = molecular target: phosphodiesterase enzyme type 5 (PDE5) (Homo sapiens, UniProt O76074); experiment: In vitro enzyme assay (Transcreener fluorescence polarization); format: biochemical; settings: 10-dose, 3-fold serial dilution starting at 50 uM
Method: Tested compounds (series B, D, E and G) were tested against phosphodiesterase enzyme type 5 (PDE5) in order to investigate their inhibitory activities. The in vitro enzyme assay was conducted using Transcreener Fluorescence polarization assay to detect the reaction product GMP. The compounds were suspended in DMSO to make 10 mM stock solutions. The procedure was conducted using the following buffer system; 10 mM Tris, pH 7.5, 5 mM MgCl2, 0.01% Brij 35, 1 mM DTT and 1% DMSO. […] The tested samples were added into the enzyme by Acoustic Technology. The substrate was added and incubated for 1 h. Fluorescence polarization (FP) was measured after 90 min incubation at rt and mP was calculated. Data were analyzed based on the GMP standard curve.

[2] = system: PDE5; settings: training set, supplement reference list, read-out: PDE5 IC50 Experimental, cited from earlier work

Compound	melting point [°C]	IC50 [1] [nM]	further results
O=C(Cc1nc2ncccc2[nH]c1=O)NNC(=O)Nc1ccccc1 [Compound 5a]	218 to 220		
O=C(Cc1nc2ncccc2[nH]c1=O)NNC(=O)Nc1ccc(Cl)cc1 [Compound 5b]	230 to 232		
O=C(Cc1nc2ncccc2[nH]c1=O)NNC(=S)Nc1ccccc1 [Compound 5c]	234 to 236		
O=C(Cc1nc2ncccc2[nH]c1=O)N/N=C/c1ccccc1 [Compound 6a]	228 to 230	59.1	
O=C(Cc1nc2ncccc2[nH]c1=O)N/N=C/c1ccc([N+](=O)[O-])cc1 [Compound 6b]		67.9	
COc1ccc(/C=N/NC(=O)Cc2nc3ncccc3[nH]c2=O)cc1 [Compound 6c]	222 to 224	47	
O=C(Cc1nc2ncccc2[nH]c1=O)NN1C(=O)CCC1=O [Compound 7a]	210 to 212		
O=C(Cc1nc2ncccc2[nH]c1=O)NN1C(=O)C=CC1=O [Compound 7b]	213 to 215		
O=C(Cc1nc2ncccc2[nH]c1=O)NN1C(=O)c2ccccc2C1=O [Compound 7c]	211 to 213		
CCN(CC)Cc1nc2ncccc2[nH]c1=O [Compound 8a]	262 to 263	93.8	
O=c1[nH]c2cccnc2nc1CN1CCCCC1 [Compound 8b]	277 to 279	44.6	
O=c1[nH]c2cccnc2nc1CN1CCOCC1 [Compound 8c]	234 to 235	89	
O=c1[nH]c2cccnc2nc1CNc1ccccc1 [Compound 8d]	248 to 250	101	
Cc1cccc(NCc2nc3ncccc3[nH]c2=O)c1 [Compound 8f]	258 to 260	21	
Cc1ccc(NCc2nc3ncccc3[nH]c2=O)cc1 [Compound 8g]	284 to 286		
O=c1[nH]c2cccnc2nc1CNc1ccc(Cl)cc1 [Compound 8h]	> 300		
O=c1[nH]c2cccnc2nc1CNc1ccc(Br)cc1 [Compound 8i]	> 300	137	
O=c1[nH]c2cccnc2nc1CN(c1ccccc1)c1ccccc1 [Compound 8j]	292 to 293		
O=c1[nH]c2cccnc2nc1CN/N=C/c1ccccc1 [Compound 9a]	234 to 236	32.2	
O=c1[nH]c2cccnc2nc1CN/N=C/c1ccc(Cl)cc1 [Compound 9b]	237 to 239	30.4	
O=c1[nH]c2cccnc2nc1CN/N=C/c1ccc([N+](=O)[O-])cc1 [Compound 9c]	238 to 240	41.4	
COc1ccc(/C=N/NCc2nc3ncccc3[nH]c2=O)cc1 [Compound 9d]	256 to 258	32.3	
C/C(=N\NCc1nc2ncccc2[nH]c1=O)c1ccccc1 [Compound 9e]	230 to 233	29.4	
O=c1[nH]c2cccnc2nc1Cc1n[nH]c(=O)n1-c1ccccc1 [Compound 10a]	220 to 222		
O=c1[nH]c2cccnc2nc1Cc1n[nH]c(=S)n1-c1ccccc1 [Compound 10c]	219 to 222		

Compound	melting point [°C]	IC50 [1] [nM]	further results
CC(=O)N1N=C(Cc2nc3ncccc3[nH]c2=O)OC1c1ccccc1 (centres unmarked) [Compound 11a]	234 to 236	26.3	
CC(=O)N1N=C(Cc2nc3ncccc3[nH]c2=O)OC1c1ccc([N+](=O)[O-])cc1 (centres unmarked) [Compound 11b]	240 to 242	18.1	
COc1ccc(C2OC(Cc3nc4ncccc4[nH]c3=O)=NN2C(C)=O)cc1 (centres unmarked) [Compound 11c]	235 to 237	31	
O=C1Nc2cccnc2N2C1=CNN=C2c1ccccc1 [Compound 12a]	219 to 221		
O=C1Nc2cccnc2N2C1=CNN=C2c1ccc(Cl)cc1 [Compound 12b]	222 to 225		
O=C1Nc2cccnc2N2C1=CNN=C2c1ccc([N+](=O)[O-])cc1 [Compound 12c]	222 to 224		
COc1ccc(C2=NNC=C3C(=O)Nc4cccnc4N32)cc1 [Compound 12d]	229 to 231		
CCCc1nn(C)c2c(=O)[nH]c(-c3cc(S(=O)(=O)N4CCN(C)CC4)ccc3OCC)nc12 [t1, Sildenafil]			IC50 ([2]; ref [1]): 2.2 nM
CN1CC(=O)N2[C@H](c3ccc4c(c3)OCO4)c3[nH]c4ccccc4c3C[C@@H]2C1=O [t3, Tadalafil]			IC50 ([2]; ref [1]): 1.2 nM
COc1ccc(CNC(=O)c2cc([N+](=O)[O-])ccc2NC(C)CO)cc1OC (centres unmarked) [t5, Benzamidenafil]			IC50 ([2]; ref [3]): 1.1 nM
COc1ccc(CN=c2[nH]c(N3CCC[C@H]3CO)ncc2C(=O)NCc2ncccn2)cc1Cl [t6, Avanafil]			IC50 ([2]; ref [5]): 5.2 nM
CCCc1nn(C)c2c(=O)[nH]c(-c3cc(S(=O)(=O)N4CCN(CC)CC4)ccc3OCC)nc12 [t7, Homosildenafil]			IC50 ([2]; ref [5]): 3.8 nM
CCCc1nn(C)c2c(=O)[nH]c(-c3cc(S(=O)(=O)N4CCN(CCO)CC4)ccc3OCC)nc12 [t8, Hydroxyhomosildenafil]			IC50 ([2]; ref [5]): 3.4 nM
CCCc1nn(C)c2c(=O)[nH]c(-c3cc(C(=O)CN4CCN(CC)CC4)ccc3OCC)nc12 [t9, Acetildenafil]			IC50 ([2]; ref [5]): 7.6 nM
CCCc1nn(C)c2c(=O)[nH]c(-c3cc(C(=O)CN4CCN(CCO)CC4)ccc3OCC)nc12 [t10, Hydroxyacetildenafil]			IC50 ([2]; ref [5]): 58.4 nM
CCCc1nn(C)c2c(=S)nc(-c3cc(S(=O)(=O)N4CCN(C)CC4)ccc3OCC)[nH]c12 [t11, Thiosildenafil]			IC50 ([2]; ref [5]): 0.6 nM
CCCOc1ccc(S(=O)(=O)NCCC2CCCN2C)cc1-c1nc2c(CCC)nn(C)c2c(=O)[nH]1 (centres unmarked) [t13, Udenafil]			IC50 ([2]; ref [6]): 8.3 nM
CCCc1nn(C)c2c(=S)nc(-c3cc(S(=O)(=O)N4C[C@@H](C)N[C@@H](C)C4)ccc3OCC)[nH]c12 [t15, Thioaildenafil]			IC50 ([2]; ref [3]): 0.6 nM
CCCc1nn(C)c2c(=O)[nH]c(-c3cc([N+](=O)[O-])ccc3OCC)nc12 [t16, Nitrodenafil]			IC50 ([2]; ref [3]): 67.4 nM
CCCc1nn(C)c2c(=O)[nH]c(-c3cc(C(=O)CN4C[C@@H](C)N[C@@H](C)C4)ccc3OCC)nc12 [t17, Dimethylacetildenafil]			IC50 ([2]; ref [3]): 51.2 nM
NN1CC(=O)N2[C@H](c3ccc4c(c3)OCO4)c3[nH]c4ccccc4c3C[C@@H]2C1=O [t116, Aminotadalafil]			IC50 ([2]; ref [5]): 4.2 nM
Carbodenafil [t12]			IC50 ([2]; ref [6]): 5.2 nM
